Assay results published in US12611443B2, “Methods and compositions related to therapeutic peptides for cancer therapy” (THE UNIVERSITY OF CHICAGO, priority 2018, dated 2026).

Experiments:
cancer cells = test: ELANE internalization by cancer cells and effect of endocytosis inhibitor; format: cell-based
Method: FIGS. 1A-1K. ELANE cleaves CD95 to selectively kill cancer cells. (A): Heatmap summary of ELANE's effects on survival, stress, and apoptosis pathways in cancer cells and healthy cells. (B-C): Cancer cells were treated with ELANE (100 nM) and CD95 cleavage was assessed by western blotting using anti-N-terminal (B) or anti-C-terminal antibodies (C). *, lower molecular weight CD95 fragment. (D): Cancer cells or non-cancer cells were transduced to overexpress CD95 proteins, and effects on ELANE-mediated apoptosis were quantified by ANXAS at 30 min. n=2/group. See FIG. 1I for transduction and CD95 over-expression. (E): Cleavage of recombinant human CD95 N-terminal (aa 1-173) or C-terminal (aa 212-335) proteins by ELANE was assessed by SDS-PAGE and Coomassie blue staining. (F): Bands from (E) were digested with trypsin and analyzed by mass spectrometry to identify putative ELANE cleavage sites (i.e., peptides with non-tryptic ends). Major non-tryptic peptides were quantified by ion chromatograms. (G): Schematic of ELANE cleavage sites in CD95. […] (H): Cleavage of recombinant peptides corresponding to aa 214-231 and aa 317-335 in CD95 by ELANE was monitored by mass spectrometry. (I): Cancer cells or non-cancer cells were treated with fluorescein-labeled ELANE for 10 min and uptake was visualized by immunofluorescence. (J): ELANE catalytic activity in cancer cell lysates following exposure to ELANE for 30 mins in the presence and absence of Dynasore (60 μM endocytosis inhibitor). Effect of Dynasore on cancer cell killing capability of ELANE (measured by calcein-AM). n=6/group. (K): Cancer cells or non-cancer cells were transduced to overexpress various CD95 proteins, and cell viability in the absence of ELANE was determined by calcein-AM. n=10/group. *, p<0.05 Student's t-test.

[1] = system: human/murine cancer cells; test: In vitro cell viability of cancer cells (calcein-AM, CASP3, ANXA5); format: cell-based; settings: catalytic inactivation confirmed
Text: Cell lines. The ovarian cancer cell lines—CAOV3, OVCAR3, OVCAR4, OVCAR5, A2780, A2780/CP70, HeyA8, TykNu, SKOV3, ID8, and ID8p53-/- were a gift from Dr. Ernst Lengyel, University of Chicago. The breast cancer cell lines—MDA-MB-231, MDA-MB-231.BM1, MCF-7, M6C, E0771, and E0771.LMB were a gift from Dr. Marsha Rosner, University of Chicago. The colon carcinoma cell line RKO, glioblastoma cancer cell line T98G, osteosarcoma cell lines U-2OS and Saos-2, and the hepatocellular carcinoma cell line HepG2 were a gift from Dr. Kay McLeod, University of Chicago. The lung cancer cell line NCI-H552 was a gift from Dr. Stephanie Huang, University of Chicago, and A549 and LLC1 cells were purchased from ATTC. The melanoma cell lines—B16F10, Mel888, Mel1106, and SK-MEL-28 cells were a gift from Dr. Thomas Gajewski, University of Chicago. The pancreatic cancer cell line PANC1 was a gift from Dr. Yamuna Krishnan, University of Chicago. The leukemia cell line K562 was a gift from Dr. Amittha Wickrema, University of Chicago.
The prostate cancer cell lines—CWR22Rv1, LAPC4, and LNCaP were a gift from Dr. Donald Vander Griend, University of Chicago. The neuroblastoma cell lines—SK-N-BE(2) and NBL-WN cells were a gift from Dr. Lucy Godley, University of Chicago.
Neutrophil media collections. Freshly isolated human or murine neutrophils were plated in serum-free DMEM for 24 h. Conditioned media was collected, spun at 500×g for 5 min, and media protein levels were determined with a Bradford assay (Biorad).
PMN media manipulations. For boiling, PMN media was boiled at 95° C. for 5 min and spun at 15,000×g for 10 min to remove precipitated proteins. For dialysis, PMN media was placed into a Slide-a-Lyzer™ cassette (3.5 kDa cutoff, ThermoFisher Scientific) and dialyzed against 2×4L of PBS at 4° C. for 4 h. For PMSF-inactivation, PMN media was treated with PMSF (1 mM, Sigma) or A1AT (42 nM, Athens Research & Technology) and incubated at room temperature for up to 2 h. Residual PMSF was eliminated with a PD-10 desalting column (GE Healthcare Life). Inhibition of ELANE catalytic activity was confirmed using a chromogenic substrate activity assay (see below). For serum-spiking experiments, human, mouse, or fetal bovine serum (1% or 10%) was added to PMN media prior to or after exposing cancer cells. For immune-depletion studies, ELANE or ECP were immunoprecipitated using anti-ELANE (N2C3, GeneTx) or anti-ECP (MB S2535165, MyBioSource) coupled to Pierce™ Protein A/G Magnetic Beads (ThermoFisher Scientific).
In vitro cell viability assays. […] Luminescence was measured using a Victor X3 luminometer (PerkinElmer).

[2] = system: tumors (MDA-MB-231, A549, MEL888, M1, 4195, E0771, LLC1, B16F10); test: Intra-tumoral treatment of tumor models (xenograft, PDX, syngeneic); format: in vivo, mice; settings: E0771 TNBC model, IT, 12 μg/day
Method: Tumor inoculation and treatment. MDA-MB-231 cells (2×10^6), A549 cells (2×10^6) with Matrix Type 3), or MEL888 cells (2×10^6 with Matrix Type 3) were injected into athymic nude mice (Charles River); M1 or 4195 cells (50,000) were injected into NOD.SCID mice (JAX); and E0771 cells (0.5×10^6), LLC1 cells (0.5×10^6), or B16F10 cells (1×10^6), were injected into C57BL/6 mice (JAX). For TNBC models (MDA-MB-231, E0771, M1, 4195), cells were injected into the 4th mammary fat pad of the right ventral side. For all other models (A549, LLC1, MEL888, B16F10), cells were injected into the flank. Once tumors reached ˜100 mm^3, ELANE or PMSF-ELANE (11.6 μg/100 μL), or neutrophil medias or HSA (50 μg/100 μL) were delivered IT once/day for 5 days. Tumor volume was assessed by calipers, and experiments were terminated when tumor volume in control mice reached >1000 mm^3.
Tumor immunohistochemistry. Tumors were fixed in 4% paraformaldehyde in PBS for 24 h, embedded in paraffin blocks, and sectioned (5 μm). Slides were stained with cCASP3 (9661) and cPARP (9625) antibodies from Cell Signaling Technology. Signals were developed using the VECTASTAIN ABC kit (Vector Laboratories) or fluorescently-labeled secondary antibodies (melanoma models). For the TUNEL assay, staining was performed with the DeadEnd™ colorimetric or fluorometric TUNEL systems (Promega). Cell nuclei were labeled with haematoxylin or Hoechst 33342 (ThermoFisher Scientific). Images were obtained with a Nikon Eclipse Ti2 microscope and analyzed using NIS-Elements software.

O=C(N/N=C/c1ccc(O)c(O)c1)c1cc2ccccc2cc1O [Dynasore]
effect on PMN media-mediated killing (cancer cells; Dynasore): protected cancer cells from PMN media-mediated killing
effect on ELANE uptake (cancer cells; Dynasore 60 μM): attenuated ELANE uptake
effect on ELANE-induced apoptosis of cancer cells (cancer cells; Dynasore 60 μM): protected cancer cells from apoptosis

B1: PMSF-ELANE: ELANE inactivated with PMSF (or A1AT) (protein, UniProt P08246 30-267, looked up)
Neutrophil elastase: IVGGRRARPHAWPFMVSLQLRGGHFCGATLIAPNFVMSAAHCVANVNVRAVRVVLGAHNLSRREPTRQVFAVQRIFENGYDPVNLLNDIVILQLNGSATINANVQVAQLPAQGRRLGNGVQCLAMGWGLLGRNRGIASVLQELNVTVVTSLCRRSNVCTLVRGRQAGVCFGDSGSPLVCNGLIHGIASFVRGGCASGLYPDAFAPVAQFVNWIDSIIQRSEDNPCPHPRDPDPASRTH
modifications: PMSF-inactivated
cancer cell killing after inactivation with PMSF or A1AT [1]: could no longer kill cancer cells
therapeutic benefit, dose finding [2]: did not produce unexpected worsening

B2: fluorescein-labeled ELANE: fluorescein-labeled ELANE used for uptake (protein, UniProt P08246 30-267, looked up)
Neutrophil elastase: B1 Neutrophil elastase
modifications: fluorescein label
notes: fluorescein-labeled ELANE used for uptake
uptake by cancer cells (cancer cells; 10 min, immunofluorescence): rapidly internalized
